# Experiments:
# Assay in all cases: relative viability (nuclei count vs DMSO), 5 days (fraction); higher = more cells survive
# Axitinib + Pemetrexed = compound: CNC(=O)c1ccccc1Sc1ccc2c(/C=C/c3ccccn3)n[nH]c2c1 [Axitinib] + Nc1nc2[nH]cc(CCc3ccc(C(=O)N[C@@H](CCC(=O)O)C(=O)O)cc3)c2c(=O)[nH]1 [Pemetrexed] (partner 0.2 µM)
# Method in brief: (§1)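 Lung cancer cell lines were pin-tool dosed in 1536-well plates on the day after seeding, with either a lone drug or a fixed anchor-drug dose plus five library-drug doses (not always all listed) in √10 steps. Nuclei were counted on 4× images after 5 days. Relative viability is the ratio of treated-well to vehicle-well nuclei counts, with each value a median of duplicate plates.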
# Bemcentinib + Bortezomib = compound: Nc1nc(Nc2ccc3c(c2)CC[C@@H](N2CCCC2)CC3)nn1-c1cc2c(nn1)-c1ccccc1CCC2 [Bemcentinib] + CC(C)C[C@H](NC(=O)[C@H](Cc1ccccc1)NC(=O)c1cnccn1)B(O)O [Bortezomib] (partner 0.002 µM)
# Method in brief: as §1
# Bemcentinib + Tozasertib = compound: Nc1nc(Nc2ccc3c(c2)CC[C@@H](N2CCCC2)CC3)nn1-c1cc2c(nn1)-c1ccccc1CCC2 [Bemcentinib] + Cc1cc(Nc2cc(N3CCN(C)CC3)nc(Sc3ccc(NC(=O)C4CC4)cc3)n2)n[nH]1 [Tozasertib] (partner 0.1 µM)
# Method in brief: as §1
# Bemcentinib + Lapatinib = compound: Nc1nc(Nc2ccc3c(c2)CC[C@@H](N2CCCC2)CC3)nn1-c1cc2c(nn1)-c1ccccc1CCC2 [Bemcentinib] + CS(=O)(=O)CCNCc1ccc(-c2ccc3ncnc(Nc4ccc(OCc5cccc(F)c5)c(Cl)c4)c3c2)o1 [Lapatinib] (partner 2 µM)
# Method in brief: as §1
Cell Line,relative viability (Axitinib + Pemetrexed; first compound 0.005 µM),relative viability (Axitinib + Pemetrexed; first compound 0.01581 µM),relative viability (Axitinib + Pemetrexed; first compound 0.05 µM),relative viability (Axitinib + Pemetrexed; first compound 0.1581 µM),relative viability (Axitinib + Pemetrexed; first compound 0.5 µM),relative viability (Bemcentinib + Bortezomib; first compound 0.04 µM),relative viability (Bemcentinib + Bortezomib; first compound 0.1265 µM),relative viability (Bemcentinib + Bortezomib; first compound 0.4 µM),relative viability (Bemcentinib + Bortezomib; first compound 1.265 µM),relative viability (Bemcentinib + Bortezomib; first compound 4 µM),relative viability (Bemcentinib + Tozasertib; first compound 0.04 µM),relative viability (Bemcentinib + Tozasertib; first compound 0.1265 µM),relative viability (Bemcentinib + Tozasertib; first compound 0.4 µM),relative viability (Bemcentinib + Tozasertib; first compound 1.265 µM),relative viability (Bemcentinib + Tozasertib; first compound 4 µM),relative viability (Bemcentinib + Lapatinib; first compound 0.04 µM),relative viability (Bemcentinib + Lapatinib; first compound 0.1265 µM),relative viability (Bemcentinib + Lapatinib; first compound 0.4 µM),relative viability (Bemcentinib + Lapatinib; first compound 1.265 µM),relative viability (Bemcentinib + Lapatinib; first compound 4 µM)
LCLC-103H,0.507,0.443,0.496,0.477,0.526,1.06,1.03,1.09,1.1,1.01,0.442,0.484,0.539,0.478,0.474,–,–,–,–,–
NCI-H520,0.68,0.698,0.74,0.681,0.716,0.517,0.472,0.711,0.591,0.61,0.526,0.379,0.411,0.452,0.484,0.855,0.943,1.08,0.768,1.05
NCI-H1975,0.294,0.293,0.272,0.269,0.279,0.381,0.347,0.417,0.433,0.44,0.689,0.881,1.02,0.672,0.818,0.962,1.02,0.894,0.79,0.853
NCI-H1355,1.01,1.03,1.09,1.03,1.01,1.22,1.3,1.15,1.24,1.26,0.529,0.569,0.562,0.61,0.538,0.908,1.1,1.04,1.13,1.07
IA-LM,–,–,–,–,–,0.663,0.696,0.799,0.923,0.808,–,–,–,–,–,0.661,0.814,1.13,0.832,0.775
SK-MES-1,0.949,1.03,1.02,1.04,1.04,–,–,–,–,–,0.977,0.908,1.09,1.03,0.968,0.437,0.447,0.431,0.482,0.511
NCI-H2170,0.281,0.252,0.261,0.27,0.27,–,–,–,–,–,0.73,0.764,0.763,0.658,0.644,0.274,0.267,0.295,0.251,0.273
NCI-H441,0.271,0.305,0.232,0.248,0.265,0.923,0.689,0.455,0.407,0.507,0.733,0.847,0.781,0.649,0.611,–,–,–,–,–
NCI-H1792,1.05,0.784,0.786,0.816,0.792,1.02,1.17,1.19,1.04,1.03,–,–,–,–,–,0.899,0.855,1.11,0.969,0.896
NCI-H1648,0.726,0.764,0.702,0.958,0.758,–,–,–,–,–,0.571,0.424,0.584,0.391,0.49,–,–,–,–,–
LK-2,0.26,0.216,0.234,0.258,0.242,–,–,–,–,–,0.166,0.164,0.19,0.178,0.168,0.869,0.908,1.07,0.838,0.891
ChaGo-K-1,0.27,0.262,0.252,0.267,0.274,0.905,1.1,0.98,0.804,0.766,0.217,0.254,0.213,0.229,0.221,–,–,–,–,–
NCI-H1395,0.962,0.761,0.832,0.683,0.736,–,–,–,–,–,0.759,0.763,0.782,0.739,0.753,0.95,1.19,0.999,1.06,0.897
NCI-H727,–,–,–,–,–,0.691,1.12,0.918,0.746,1.1,0.537,0.759,0.606,0.629,0.58,0.713,0.875,0.877,0.864,1.01
NCI-H358,0.166,0.154,0.182,0.173,0.181,–,–,–,–,–,0.11,0.129,0.106,0.0963,0.119,0.496,0.415,0.373,0.531,0.464
Calu-6,–,–,–,–,–,1.05,1.07,1.07,1.08,1.12,–,–,–,–,–,1.02,1.25,1.34,1.13,1.11
NCI-H1563,0.844,0.716,0.917,0.729,0.721,0.811,0.86,0.859,0.992,0.863,–,–,–,–,–,0.907,0.887,1.04,0.976,0.958
EBC-1,–,–,–,–,–,0.585,0.547,0.525,0.458,0.585,–,–,–,–,–,0.203,0.189,0.302,0.204,0.221
NCI-H1703,–,–,–,–,–,0.25,0.237,0.292,0.284,0.29,–,–,–,–,–,–,1.18,1.24,1.17,1.13
SW 900,0.479,–,0.469,0.505,0.479,–,–,–,–,–,0.458,0.807,0.54,0.611,0.529,–,–,–,–,–
NCI-H1299,–,–,–,–,–,0.981,1.03,1.03,1.04,1.09,–,–,–,–,–,0.991,0.995,0.962,0.938,0.978
NCI-H522,1.22,1.14,1.07,1.07,0.944,–,–,–,–,–,0.561,0.598,0.638,0.62,0.538,–,–,–,–,–
A549,–,–,–,–,–,–,–,–,–,–,–,–,–,–,–,0.954,0.999,1.14,0.956,1.02
